Results reported in patent publication US20230220331A1, “TEMPORARY TREATMENT MEDIUM, TREATMENT KIT, EMBRYOGENESIS ARREST INHIBITOR, EMBRYOGENESIS ARREST INHIBITORY METHOD, DEVELOPMENTAL ENGINEERING PRODUCT PREPARATION METHOD, TRANSPLANTATION METHOD, THERAPEUTIC METHOD, AND DEVELOPMENTAL ENGINEERING PRODUCT” (priority 2020, published 2023).

Key:
C57BL/6J blastocysts = assay: Developmental efficiency of frozen embryo transfer (Treatment Example 18); assay type: cell-based, mouse; settings: C57BL/6J freeze-thawed blastocysts, 38 embryos transferred
Protocol: Specifically, in the blastocysts of C57BL/6J mice, a freeze-thaw manipulation was performed by using the above-mentioned temporary treatment medium by using Y-27632 or the normal medium as control. Further, an average of 20 blastocysts per recipient (MCH mouse) was transplanted into the uterus. The newborn was delivered by Caesarean section (CS), and the number of implantation marks and the number of newborns were confirmed. Weaning mice were suckled by foster parents, the number of weaning mice was confirmed, and the weaning survival rate was calculated. In addition, the embryo medium was used based on the mWM medium.

[1] = test system: pronuclear stage embryos of F344 rat; assay: Flox rat knock-in by 2STEP electroporation with high concentration ssODN (Treatment Example 6); assay type: cell-based; settings: ssODN 800 ng/μL, 14 transfer pulses
Protocol: 1. At least 3 hours before TAKE, 5 drops of Y-27632-added KSOM AA medium (Y-27632 final concentration 10 μM, an example of the “temporary treatment medium” of this example) were placed on a 35 mm Petri dish and drops covered with paraffin oil.
2. Pronuclear stage embryos were collected, placed in Y-27632-added KSOM AA medium, and cultured for about 30 minutes to 1 hour (temporary treatment).
3. After that, the first TAKE was performed.
4. After TAKE, the embryos were placed in Y-27632-added KSOM AA medium and cultured under 37° C., 5% CO2, and 5% O2 conditions for 30 minutes and more and up to 12 hours (temporary treatment).
5. Then, they were placed in Y-27632-free KSOM AA medium (an example of the “normal medium” of this example), and cultured under 37° C., 5% CO2, and 5% O2 conditions until the second TAKE.
6. The next day, the embryos that had become two cells were separated, and about 20 to 22 hours after egg collection, they were placed in Y-27632-added KSOM AA medium again and cultured for about 30 minutes to 1 hour (temporary treatment).
7. After that, the second TAKE was performed.
8. After the second TAKE, the embryos were placed in Y-27632-added KSOM AA medium and cultured for about 30 minutes to 1 hour (temporary treatment).
9. Then, they were transferred to mR1ECM medium (an example of “normal medium” of this example). […]

[2] = test system: two-cell frozen embryos of heterologous inbred SPR2 mouse; assay: Individual production from frozen eggs of SPR2 (Treatment Example 3); assay type: cell-based, Mus spretus; settings: SPR2 frozen 2-cell embryos thawed, 1 hour in Y-27632 medium
Protocol: 1. Up to 3 hours before TAKE, Y-27632-added mWM medium (Y-27632 final concentration 10 μM, an example of the “temporary treatment medium” of this example), Y-27632-free mWM medium (an example of “normal medium” of this example) were dropped into 35 mm Petri dishes by 5 drops, respectively, to prepare drops covered with paraffin oil. 2. Two-cell stage embryos were collected from the drops or thawed, placed in Y-27632-added mWM medium, and cultured for about 30 minutes to 1 hour (temporary treatment). According to a typical method, in the afternoon when female mice and rats were mated with males with vasoligation and confirmed to be plugged, about 10 each were transplanted into the left and right oviducts or uterus of plug-confirmed mature female mice and rats. In this production example, two-cell frozen embryos of SPR2 were thawed, cultured in a temporary treatment medium containing Y-27632 for 1 hour, and transplanted into the uterus of a pseudopregnant female mouse. […] As a result, frozen embryo-derived individuals (16 transplanted embryos, 6 newborns) were obtained.

[3] = 16 blastocysts transferred to uterus (3.5 days)

C[C@@H](N)[C@H]1CC[C@H](C(=O)Nc2ccncc2)CC1 [Y-27632, trans-4-[(1R)-1-Aminoethyl]-N-4-pyrid inylcyclohexanecarboxamide]
Implantation mark (C57BL/6J blastocysts): 13
Weaning (number of weaning mice) (C57BL/6J blastocysts): 10
Weaning survival rate (C57BL/6J blastocysts): 100%
Pups (CS) (C57BL/6J blastocysts; Caesarean section): 10
samples developed to blastocysts (PCR AMPLIFICATION) ([1]; F344, 2STEP, of 86 samples): 67
Flox (proportion) ([1]; F344 blastocysts, 2STEP): 1/67
NUMBER OF BIRTHS FEMALE [2, 3]: 4
NUMBER OF BIRTHS MALE [2, 3]: 2
NUMBER OF BIRTHS TOTAL (newborns) ([2]; 16 embryos transferred to uterus (3.5 days)): 6
